The text below walks through data of patent US10744351B2 (priority 2009, dated 2020).

A value given as a limit tells only on which side of the number the result lay.

In this assay the test system is influenza virus (influenza A/Kitakyusyu/159/93(H3N2)). The class given is biochemical.

`[Cu+].[I-]` [COPPER(I) IODIDE, copper(I) iodide] showed an HA titer of 16.
For `[I-].[I-].[Pt+2]` [PLATINUM(II) IODIDE, platinum(II) iodide] the value was below 2; for `N#C[S-].[Cu+]` [COPPER(I) THIOCYANATE, copper(I) thiocyanate], 2.
The same measure for `[I][Pd][I]` [PALLADIUM(II) IODIDE, palladium(II) iodide]: 4; for silver(I) iodide: 64.
